Experiments:
[1] = Displacement of [3H]SCH 23390 from dopamine D1-like receptor in Sprague-Dawley rat caudate putamen after 90 mins; type: tissue-based
D(2) dopamine receptor [2] = target: D(2) dopamine receptor (Rattus norvegicus, UniProt P61169); test: Displacement of [3H]Spiperone from dopamine D2-like receptor in Sprague-Dawley rat caudate putamen after 90 mins; type: tissue-based
D(3) dopamine receptor [3] = target: D(3) dopamine receptor (Rattus norvegicus, UniProt P19020); test: Displacement of [3H]R-(+)-7-OHDPAT from dopamine D3 receptor in Sprague-Dawley rat ventral striatum after 90 mins
Rattus norvegicus [4] = species on record: Rattus norvegicus; test: Selectivity ratio of Ki for dopamine D1-like receptor in Sprague-Dawley rat caudate putamen to Ki for dopamine D3 receptor in Sprague-Dawley rat ventral striatum; type: tissue-based
Rattus norvegicus [5] = species on record: Rattus norvegicus; test: Selectivity ratio of Ki for dopamine D2-like receptor in Sprague-Dawley rat caudate putamen to Ki for dopamine D3 receptor in Sprague-Dawley rat ventral striatum; type: tissue-based
D(3) dopamine receptor [6] = target: T1, D(3) dopamine receptor (Homo sapiens, UniProt P35462); details: U2OS
D(3) dopamine receptor [7] = target: T1, D(3) dopamine receptor; test: Displacement of [3H]N-methylspiperone from human dopamine D3 receptor expressed in HEK293 cells after 1 hr by liquid scintillation counting analysis; type: cell-based
D(2) dopamine receptor [8] = target: D(2) dopamine receptor (Homo sapiens, UniProt P14416); test: Displacement of [3H]N-methylspiperone from human dopamine D2 receptor expressed in HEK293 cells after 1 hr by liquid scintillation counting analysis; type: cell-based
D(3) dopamine receptor [9] = target: T1, D(3) dopamine receptor

Sequence of D(2) dopamine receptor (Rattus norvegicus, UniProt P61169) (P61169 whole entry): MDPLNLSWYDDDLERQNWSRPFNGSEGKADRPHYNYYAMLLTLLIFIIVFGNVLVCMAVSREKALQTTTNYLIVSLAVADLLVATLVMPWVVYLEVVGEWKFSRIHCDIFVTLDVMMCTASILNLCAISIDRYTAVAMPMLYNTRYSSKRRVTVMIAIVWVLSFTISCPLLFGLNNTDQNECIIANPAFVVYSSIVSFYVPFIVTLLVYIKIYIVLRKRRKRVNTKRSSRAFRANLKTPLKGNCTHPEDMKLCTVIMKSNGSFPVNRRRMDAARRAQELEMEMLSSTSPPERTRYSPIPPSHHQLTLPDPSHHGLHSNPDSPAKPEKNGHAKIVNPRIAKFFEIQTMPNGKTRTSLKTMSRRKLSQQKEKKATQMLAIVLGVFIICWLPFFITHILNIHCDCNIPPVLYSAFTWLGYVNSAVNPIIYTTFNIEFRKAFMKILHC
T1 sequence (P35462 whole entry): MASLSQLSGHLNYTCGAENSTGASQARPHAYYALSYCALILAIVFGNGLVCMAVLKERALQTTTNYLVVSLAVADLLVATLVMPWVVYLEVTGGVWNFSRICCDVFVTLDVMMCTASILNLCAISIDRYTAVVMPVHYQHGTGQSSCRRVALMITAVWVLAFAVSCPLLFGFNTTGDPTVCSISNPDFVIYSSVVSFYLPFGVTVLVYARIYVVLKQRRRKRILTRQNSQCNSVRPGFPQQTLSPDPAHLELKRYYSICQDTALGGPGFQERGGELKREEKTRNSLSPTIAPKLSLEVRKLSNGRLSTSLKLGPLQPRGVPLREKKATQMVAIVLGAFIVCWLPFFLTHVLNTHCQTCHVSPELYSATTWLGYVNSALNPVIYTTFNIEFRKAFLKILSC
Sequence of D(3) dopamine receptor (Rattus norvegicus, UniProt P19020) (P19020 whole entry): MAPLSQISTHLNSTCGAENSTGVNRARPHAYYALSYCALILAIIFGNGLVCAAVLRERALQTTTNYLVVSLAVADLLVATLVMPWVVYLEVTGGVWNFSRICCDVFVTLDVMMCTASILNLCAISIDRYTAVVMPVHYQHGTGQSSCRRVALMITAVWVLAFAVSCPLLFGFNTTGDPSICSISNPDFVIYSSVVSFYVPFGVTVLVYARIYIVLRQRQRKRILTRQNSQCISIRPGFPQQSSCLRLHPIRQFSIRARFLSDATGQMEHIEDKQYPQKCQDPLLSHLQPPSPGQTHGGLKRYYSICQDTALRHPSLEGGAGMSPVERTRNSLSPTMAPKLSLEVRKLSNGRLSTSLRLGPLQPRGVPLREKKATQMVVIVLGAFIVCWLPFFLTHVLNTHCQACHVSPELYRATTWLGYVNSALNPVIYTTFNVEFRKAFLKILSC
Sequence of D(2) dopamine receptor (Homo sapiens, UniProt P14416) (P14416 whole entry): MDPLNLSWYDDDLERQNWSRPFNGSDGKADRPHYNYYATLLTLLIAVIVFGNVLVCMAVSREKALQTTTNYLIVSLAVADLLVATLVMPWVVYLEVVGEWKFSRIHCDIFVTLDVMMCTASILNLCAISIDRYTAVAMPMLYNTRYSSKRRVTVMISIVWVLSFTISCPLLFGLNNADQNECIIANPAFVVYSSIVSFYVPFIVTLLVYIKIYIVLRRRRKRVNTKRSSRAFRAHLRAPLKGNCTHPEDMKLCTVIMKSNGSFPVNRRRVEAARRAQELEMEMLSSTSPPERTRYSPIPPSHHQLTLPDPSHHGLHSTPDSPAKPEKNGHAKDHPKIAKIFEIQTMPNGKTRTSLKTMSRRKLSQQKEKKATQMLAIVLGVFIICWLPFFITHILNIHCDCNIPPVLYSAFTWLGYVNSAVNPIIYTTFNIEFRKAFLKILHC

| SMILES | Ki [1] | Ki (D(2) dopamine receptor [2]) | Ki (D(3) dopamine receptor [3]) | Ratio Ki (Rattus norvegicus [4]) | Ratio Ki (Rattus norvegicus [5]) | other results |
| --- | --- | --- | --- | --- | --- | --- |
| CCCN(CC[C@]1(O)C[C@@H](NC(=O)c2ccc3ccccc3c2)C1)[C@H]1C[C@@H]1c1ccc(Cl)cc1 | 20700 nM | > 100000 nM | 457 nM |  |  |  |
| CCCN(CC[C@]1(O)C[C@@H](NC(=O)c2ccc3ccccc3c2)C1)[C@H]1C[C@@H]1c1cccc(Cl)c1 (racemic) | 1800 nM | > 300000 nM |  | 64 |  |  |
| CCCN(CC[C@]1(O)C[C@@H](NC(=O)c2ccc3ccccc3c2)C1)[C@H]1C[C@@H]1c1ccccc1Cl (racemic) | 743 nM |  |  | 39 | 26 |  |
| CCCN[C@H]1CCc2nc(N)sc2C1 |  |  |  |  |  | ED50 (D(3) dopamine receptor [6]): 3.7 nM |
| CCN1CCC[C@H]1CNC(=O)c1c(O)c(Cl)cc(Cl)c1OC [RACLOPRIDE] |  |  |  |  |  | Ki (D(3) dopamine receptor [7]): 13.4 nM |
| CCCN(CC[C@]1(O)C[C@@H](NC(=O)c2ccc3ccccc3c2)C1)[C@@H]1C[C@H]1c1ccccc1 | 2820 nM | 1310 nM | 44 nM | 64 | 30 |  |
| CCCN(CC[C@]1(O)C[C@@H](NC(=O)c2ccc3ccccc3c2)C1)[C@@H]1C[C@H]1c1ccc(Cl)cc1 | 25800 nM | > 300000 nM | 2.7 nM |  |  | ED50 (D(3) dopamine receptor [6]): > 100000 nM; Ki (D(2) dopamine receptor [8]): 623 nM; Ki (D(3) dopamine receptor [7]): 2.8 nM; IC50 (D(3) dopamine receptor [9]): 327 nM |
| Cc1ncoc1-c1nnc(SCCCN2CC3CC3(c3ccc(C(F)(F)F)cc3F)C2)n1C (stereo not drawn) | 38800 nM |  | 46 nM |  |  |  |
| CCCN(CC[C@]1(O)C[C@@H](NC(=O)c2ccc3ccccc3c2)C1)[C@H]1C[C@@H]1c1ccccc1 | 3090 nM | 2140 nM | 108 nM | 29 | 20 |  |
| CCc1cc(Cl)c(OC)c(C(=O)NC[C@@H]2CCCN2CC)c1O [ETICLOPRIDE] |  |  |  |  |  | Ki (D(2) dopamine receptor [8]): 0.086 nM |
| N[C@@H]1C[C@H]1c1ccccc1.N[C@H]1C[C@@H]1c1ccccc1 (racemic) [TRANYLCYPROMINE] |  | 58700 nM |  |  |  |  |
| CCCN(CC[C@]1(O)C[C@@H](NC(=O)c2ccc3ccccc3c2)C1)C1CC1c1ccc(Cl)cc1 (mixture of isomers) | 2200 nM |  |  |  |  |  |
| CCCN[C@@H]1C[C@H]1c1ccccc1 | 90600 nM | 96600 nM | 1200 nM | 76 | 81 |  |
| CCCN[C@H]1C[C@@H]1c1ccccc1 | 123000 nM | 95600 nM | 1170 nM | 105 | 82 |  |
